Measurements: US20240408093A1, “HETEROBIFUNCTIONAL COMPOUNDS AND THEIR USE IN TREATING DISEASE” (HALDA THERAPEUTICS OPCO, INC., priority 2022, published 2024)

Columns and labels:
Format in all cases: cell-based
[1] = system: HEK293 cells (ATCC CRL-1573); test: Cellular growth inhibition assay, HEK293 cells (Example 16); settings: Homo sapiens, 72 hours, CellTiter-Glo 2.0
Procedure: (§1) Exemplary compounds were tested for ability to inhibit the proliferation of HEK293 cells (ATCC CRL-1573) and HeLa cells (ATCC CCL-2).
(§2) HEK293 and HeLa cells were cultured in DMEM (Gibco 11995), supplemented with 10% Heat-inactivated FBS (Gibco A38400-01) and 1% Penicillin/Streptomycin (Gibco 15140-122) at 37° C. with 5% CO2 in a humidified tissue culture incubator. Cells were seeded at 500 cells/well in 384-well, Poly-D-lysine-treated blackplates (Perkin Elmer 6007710) in 25 μL media lacking selection for 18-24 hours. Plates were spun at 300 g for 30 seconds and stored in the incubator overnight. After 24 hours, a 25 μL aliquot of compound-containing medium was added in each well, at a final top concentration of 10 μM test compound, with 3-fold dilutions, using DMSO alone as a negative control. Plates were then spun at 300×g for 3 minutes again and cultured at 37° C. with 5% CO2. After 72 hours, cell viability was quantified with CellTiter-Glo 2.0 (Promega). After equilibrating cell plates at room temperature for 30 minutes, 25 μL CellTiter-Glo 2.0 reagent was dispensed into each well. Plates were mixed on a shaker for 2 minutes at 500 rpm, followed by a 10-minute incubation at room temperature. Luminescence readings were measured with an EnVision Plate Reader (Perkin Elmer). Data was normalized to DMSO treated cell wells. A four-parameter non-linear regression curve fit was applied to dose-response data in Prism to determine the half maximal growth inhibitory concentration (GI50) of each compound.

[2] = system: HeLa cells (ATCC CCL-2); test: Cellular growth inhibition assay, HeLa cells (Example 16); settings: Homo sapiens, 72 hours, CellTiter-Glo 2.0
Procedure: as §1, §2

[3] = molecular target: T1, GSPT1 (Homo sapiens, UniProt P15170+Q96SW2); test: GSPT1 HiBiT degradation assay; settings: HEK293 LgBiT GSPT1 HiBiT cells, 6 hours
T1 construct: host or cells: HEK293 LgBiT / GSPT1 HiBiT CRISPR knock-in
T1 sequence (P15170 whole entry): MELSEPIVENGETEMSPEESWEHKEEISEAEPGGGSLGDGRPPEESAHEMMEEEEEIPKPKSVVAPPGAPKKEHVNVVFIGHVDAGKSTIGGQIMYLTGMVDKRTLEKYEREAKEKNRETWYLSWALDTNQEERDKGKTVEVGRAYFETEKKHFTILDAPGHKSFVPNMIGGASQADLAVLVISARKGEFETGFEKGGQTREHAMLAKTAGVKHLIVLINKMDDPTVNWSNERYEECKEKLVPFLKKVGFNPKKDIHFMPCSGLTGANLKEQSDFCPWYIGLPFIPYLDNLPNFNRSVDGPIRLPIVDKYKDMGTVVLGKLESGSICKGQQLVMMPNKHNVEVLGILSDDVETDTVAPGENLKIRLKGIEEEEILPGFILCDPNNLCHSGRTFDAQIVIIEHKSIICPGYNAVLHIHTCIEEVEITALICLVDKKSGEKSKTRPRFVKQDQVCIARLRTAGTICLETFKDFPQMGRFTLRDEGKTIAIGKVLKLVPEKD
T1 sequence (Q96SW2 whole entry): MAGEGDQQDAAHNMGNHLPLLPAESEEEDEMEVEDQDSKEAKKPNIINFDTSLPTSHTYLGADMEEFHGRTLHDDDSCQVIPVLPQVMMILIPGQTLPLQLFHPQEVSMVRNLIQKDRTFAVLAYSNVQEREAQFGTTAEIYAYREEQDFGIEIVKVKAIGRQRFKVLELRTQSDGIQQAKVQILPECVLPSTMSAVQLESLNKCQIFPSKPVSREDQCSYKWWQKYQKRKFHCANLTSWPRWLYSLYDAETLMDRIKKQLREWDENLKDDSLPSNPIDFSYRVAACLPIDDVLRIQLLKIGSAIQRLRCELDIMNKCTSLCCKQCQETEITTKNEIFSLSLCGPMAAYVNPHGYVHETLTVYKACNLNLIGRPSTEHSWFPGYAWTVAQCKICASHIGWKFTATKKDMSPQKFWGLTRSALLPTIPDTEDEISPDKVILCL
T1 sequence (Q16531 whole entry partner): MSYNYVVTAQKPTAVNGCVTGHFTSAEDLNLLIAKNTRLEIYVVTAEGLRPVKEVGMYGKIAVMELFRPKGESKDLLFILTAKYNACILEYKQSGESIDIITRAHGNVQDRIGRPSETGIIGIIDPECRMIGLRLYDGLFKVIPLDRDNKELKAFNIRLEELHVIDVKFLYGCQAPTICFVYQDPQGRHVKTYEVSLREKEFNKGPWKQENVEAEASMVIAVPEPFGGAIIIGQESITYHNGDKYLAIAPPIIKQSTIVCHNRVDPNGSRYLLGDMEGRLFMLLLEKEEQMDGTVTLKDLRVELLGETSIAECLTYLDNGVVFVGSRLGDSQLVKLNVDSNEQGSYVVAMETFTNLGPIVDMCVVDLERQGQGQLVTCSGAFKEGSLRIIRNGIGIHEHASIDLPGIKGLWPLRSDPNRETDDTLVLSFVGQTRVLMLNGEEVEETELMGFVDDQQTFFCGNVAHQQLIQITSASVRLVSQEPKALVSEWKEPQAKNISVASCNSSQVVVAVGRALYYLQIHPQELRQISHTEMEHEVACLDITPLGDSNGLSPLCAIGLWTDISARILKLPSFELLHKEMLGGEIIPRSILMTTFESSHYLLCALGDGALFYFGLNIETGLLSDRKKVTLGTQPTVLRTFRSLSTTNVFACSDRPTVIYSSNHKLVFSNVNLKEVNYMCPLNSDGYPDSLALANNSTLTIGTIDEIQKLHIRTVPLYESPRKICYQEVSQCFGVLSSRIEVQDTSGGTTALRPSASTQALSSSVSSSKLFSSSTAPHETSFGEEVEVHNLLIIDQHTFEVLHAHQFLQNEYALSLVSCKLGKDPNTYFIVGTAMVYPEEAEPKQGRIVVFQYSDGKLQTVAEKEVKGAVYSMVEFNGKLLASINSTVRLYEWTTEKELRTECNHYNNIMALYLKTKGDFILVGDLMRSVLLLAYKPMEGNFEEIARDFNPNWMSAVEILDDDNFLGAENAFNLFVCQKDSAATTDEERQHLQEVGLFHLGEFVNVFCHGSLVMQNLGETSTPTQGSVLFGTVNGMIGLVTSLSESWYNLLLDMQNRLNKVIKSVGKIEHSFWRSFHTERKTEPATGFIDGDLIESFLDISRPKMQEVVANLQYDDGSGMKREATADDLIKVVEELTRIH
Description: Promega developed a HEK293 cell line that constitutively expresses LgBiT protein and GSPT1_HiBiT fusion protein. When both proteins are present, the HiBiT portion of the fusion protein combines with LgBiT protein to form a functional luciferase enzyme. Endurazine, a cell permeable small molecule, is converted by cellular esterases into furimazine, which the luciferase enzyme uses as a substrate to generate luminescence. When GSPT1 is degraded, the HiBit is also degraded. This prevents formation of fully functional luciferase, leading to a loss in luminescence. GSPT1 degradation therefore correlates with a decrease in luminescence and can be measured continuously over time. The concentration of compound at which 50% GSPT1 degradation occurs (DC50) may be calculated using this system.
HEK293 LgBiTGSPT1 HiBiT CRISPR Knock-in cells were cultured in DMEM Media supplemented with 10% Heat-inactivated FBS, 1% Penicillin/Streptomycin, 200 μg/mL hygromycin and stored in a humidified incubator set at 37° C. and 5% CO2. 18-24 hours prior to compound treatment, cells were seeded at 1000 cells/well in a 384-well tissue culture-treated white plates in 25 μL media lacking selection for 18-24 hours. The plates were spun at 300 g for 30 seconds and stored in the incubator overnight. After 24 hours, compounds are titrated in DMSO and added to media supplemented with endurazine substrate. A 25 μL aliquot of 2× compound/endurazine in media is then added to the 384-well microplate with seeded cells. (Endurazine is used at a final concentration of 0.5×). The plate was spun at 300 g for 30 seconds and stored in the incubator. After 6 hours, the plate was read on a Perkin Elmer MultiMode Plate Reader Envision 2105 to measure luminescence signal. Data were plotted in Prism (Graphpad) and the concentration of compound at which 50% GSPT1 degradation occurs (DC50) was calculated.

| SMILES | GI50 [2] | DC50 [3] | GI50 [1] |
| --- | --- | --- | --- |
| C=C(CN1C(=O)CCC(N2Cc3cc(CNC(=O)Nc4ccc(C)c(Cl)c4)ccc3C2=O)C1=O)C(=O)N1CCN(c2nc(=O)n(-c3c(C)ccnc3C(C)C)c3nc(-c4c(O)cccc4F)c(F)cc23)[C@@H](C)C1 (stereo partly drawn) [Compound I-1, 1-(3-chloro-4-methyl-phenyl)-3-[[2-[1-[2-[(3S)-4-[6-fluoro-7-(2-fluoro-6-hydroxy-phenyl)-1-(2-isopropyl-4-methyl-3-pyridyl)-2-oxo-pyrido[2,3-d]pyrimidin-4-yl]-3-methyl-piperazine-1-carbonyl]allyl]-2,6-dioxo-3-piperidyl]-1-oxo-isoindolin-5-yl]methyl]urea] |  | 0.5 to 2.5 µM |  |
| C=C(CN(C(=O)NCc1ccc2c(c1)CN(C1CCC(=O)NC1=O)C2=O)c1cc(Cl)cc([N+](=O)[O-])c1)C(=O)N1CCC[C@@H](n2nc(-c3ccc(Oc4ccccc4)cc3)c3c(N)ncnc32)C1 (some centres unmarked) [Compound I-37] |  | > 2.5 µM |  |
| C=C(CN(C(=O)NCc1ccc2c(c1)CN(C1CCC(=O)NC1=O)C2=O)c1ccc(OC)c(Cl)c1)C(=O)N1CCC[C@@H](n2nc(-c3ccc(Oc4ccccc4)cc3)c3c(N)ncnc32)C1 (some centres unmarked) [Compound I-39] | > 10 µM | > 2.5 µM | > 10 µM |
| C=C(CN(C(=O)NCc1ccc2c(c1)CN(C1CCC(=O)NC1=O)C2=O)c1cc(Cl)cc(OC)c1)C(=O)N1CCC[C@@H](n2nc(-c3ccc(Oc4ccccc4)cc3)c3c(N)ncnc32)C1 (some centres unmarked) [Compound I-40] | > 10 µM | > 2.5 µM | > 10 µM |
| C=C(COc1cccc(NC(=O)NCc2ccc3c(c2)CN(C2CCC(=O)NC2=O)C3=O)c1Cl)C(=O)N1CCN(c2nc(OC[C@@H]3CCCN3C)nc3c2CCN(c2cccc4cccc(Cl)c24)C3)C[C@@H]1CC#N (some centres unmarked) [Compound I-91] | > 10 µM |  | > 10 µM |
| C=C(COc1ccc2c(Cl)c(NC(=O)NCc3ccc4c(c3)CN(C3CCC(=O)NC3=O)C4=O)ccc2c1)C(=O)N1CCN(c2nc(OC[C@@H]3CCCN3C)nc3c2CCN(c2cccc4cccc(Cl)c24)C3)C[C@@H]1CC#N (some centres unmarked) [Compound I-92] | > 10 µM |  | < 0.5 µM |
| C=C(COc1cc(NC(=O)NCc2ccc3c(c2)CN(C2CCC(=O)NC2=O)C3=O)cc(OC)c1Cl)C(=O)N1CCN(c2nc(OC[C@@H]3CCCN3C)nc3c2CCN(c2cccc4cccc(Cl)c24)C3)C[C@@H]1CC#N (some centres unmarked) [Compound I-96] | > 10 µM |  | > 10 µM |

Now from value to compound, other results behind:

| GI50 [2] | DC50 [3] | SMILES | GI50 [1] |
| --- | --- | --- | --- |
| > 10 µM |  | C=C(CN1C(=O)CCC(N2Cc3cc(CNC(=O)NCc4cccc(C(F)(F)F)c4O)ccc3C2=O)C1=O)C(=O)N1CCN(c2nc(OC[C@@H]3CCCN3C)nc3c2CCN(c2cccc4cccc(Cl)c24)C3)C[C@@H]1CC#N (stereo in doubt) [Compound I-94] | 1.5 to 10 µM |
| 1.5 to 10 µM | > 2.5 µM | C=C(CN(Cc1ccc2c(c1)CN(C1CCC(=O)NC1=O)C2=O)C(=O)Nc1ccc(C)c(Cl)c1)C(=O)N1CCN(c2nc(OC[C@@H]3CCCN3C)nc3c2CCN(c2cccc4cccc(Cl)c24)C3)C[C@@H]1CC#N (some centres unmarked) [Compound I-33] | 1.5 to 10 µM |
| 1.5 to 10 µM | 0.05 to 0.5 µM | C=C(CN(C(=O)NCc1ccc2c(c1)CN(C1CCC(=O)NC1=O)C2=O)c1ccc(C)c(Cl)c1)C(=O)N1CCN(c2nc(OC[C@@H]3CCCN3C)nc3c2CCN(c2cccc4cccc(Cl)c24)C3)C[C@@H]1CC#N (some centres unmarked) [Compound I-34] | < 0.5 µM |
| > 10 µM | > 2.5 µM | C=C(COc1ccc(CN2C(=O)CCC(N3Cc4cc(CNC(=O)Nc5ccc(C)c(Cl)c5)ccc4C3=O)C2=O)cc1)C(=O)N1CCC[C@@H](n2nc(-c3ccc(Oc4ccccc4)cc3)c3c(N)ncnc32)C1 (some centres unmarked) [Compound I-36] | > 10 µM |
| 0.5 to 1.5 µM |  | C=C(Cn1ccc2ccc(NC(=O)NCc3ccc4c(c3)CN(C3CCC(=O)NC3=O)C4=O)cc21)C(=O)N1CCN(c2nc(OC[C@@H]3CCCN3C)nc3c2CCN(c2cccc4cccc(Cl)c24)C3)C[C@@H]1CC#N (some centres unmarked) [Compound I-93] | 0.5 to 1.5 µM |
| < 0.5 µM |  | C=C(COC(=O)NC1CCC(Nc2nc(NCc3ccc(-c4ccccn4)cc3)c3ncn(C(C)C)c3n2)CC1)C(=O)N1CCN(c2nc(OC[C@@H]3CCCN3C)nc3c2CCN(c2cccc4cccc(Cl)c24)C3)C[C@@H]1CC#N (some centres unmarked) [II-192] | 0.5 to 1.5 µM |
